Laboratory results as given in patent publication US20250026747A1, “COLIBACTIN DERIVATIVES AND METHODS OF TREATING, AMELIORATING, AND/OR PREVENTING CANCER” (priority 2021, published 2025).

How the values were obtained:
Format in all cases: cell-based, human
[1] = Cell viability assay (CellTiter-GLO) in HeLa cells; settings: human, 72 h, 24 nM to 100 μM, normalized to tamoxifen 60 μM and DMSO, read-out: half-maximal inhibitory potency (IC50), cytotoxicity
Method: (§1) FIGS. 12A-12E show the results of the Cell viability assays. Specifically, HeLa cells were incubated with: (FIG. 12A) compound 9; (FIG. 12B) colibactin 742 (4); (FIG. 12C) compound 22; (FIG. 12D) compound 23; or (FIG. 12E) compound 24 at 24 nM-100 μM for 72 h, according some embodiments. The cells were then incubated with CTG reagent and the luminescence was measured. Results were normalized to DMSO control (0.1%, 0% effect) tamoxifen (60 μM, 100% effect). The points are the averages of twelve measurements (triplicates of four). The lines are four parameters logistic regression (4PL) fit. Error bars represent 95% confidence ranges.
(§2) Experiments to determine if the cyclized and linear forms (colibactin 742 (4) and 9, respectively) are cytotoxic were conducted. As discussed above, the timing of the cyclization events that form the colibactin warheads is not known. To probe this, the instant study measured the cytotoxicity of both the linear precursor 9 and colibactin 742 (4) toward human cervical cancer cells (HeLa). The compounds were incubated for 72 h at concentrations ranging from 24 nM to 100 μM. Cell viability was measured using CellTiter GLO assay and normalized to tamoxifen (60 μM, set at 100% effect) and methyl sulfoxide (DMSO, set at 0% effect). […] Additionally, this observation further supports the notion that while the C36-C37 1,2-diketone may dictate colibactin's half-life within the gut, it may not play a critical role in DNA damage.
(§3) Hela cells were grown in Dulbecco's Modified Eagle Medium (DMEM) supplemented with fetal bovine serum (FBS, 10%) and penicillin-streptomycin (0.1%) at 37° C. in a 95% humidity atmosphere under 5% CO2 environment. Cytotoxicity was determined using a CellTiter-GLO Assay. Cells were seeded at a density of 400 cells to achieve total well volumes of 20 μL in 384-well plates (black with an optically clear bottom, Greiner Bio One 781091) using a Thermo Combidrop liquid dispenser and grown for […] at 37° C., 5% CO2. Cells were grown for 24 h, followed by the addition of test compounds using an Echo acoustic liquid handler (Labcyte). For each tested drug concentration, a 20 nL aliquot of the 1000× stock was added to 20 μL of cells to provide a final DMSO concentration of 0.1%. The compounds were incubated for 72 h at concentrations ranging from 24 nM to 100 μM. Each plate contained negative vehicle control wells (0.1% DMSO) and positive control wells (60 μM tamoxifen). After 72 h, the cells were treated with 10 μL CTG reagent. […] The resulting luminescence was measured using a plate reader (Infinite M1000, TECAN Group AG). Biological triplicates, each measured four times (N=12), for each compound were recorded for each concentration and IC50 values were determined using Prism 9 (Graph Pad) fit with a four parameters nonlinear regression.

γH2AX = assay: Immunofluorescence assay of γH2AX foci in HeLa cells; settings: 4 h treatment, 20 h further culture; for number of positive cells for γH2AX foci: 11 μM, positive when >5 foci; for γH2AX foci formation: 1-100 μM
Method: (§4) FIGS. 7A-7B evaluates the Colibactin 742 (4) and its linear precursor 9 recapitulate the clb phenotype. […] HeLa cells were treated with the linear precursor 9 (1-100 μM), colibactin 742 (4) (1-100 μM) or MMC (150 nM) for 4 h. The cells were then washed and incubated for 20 h before immunofluorescence imaging. Cells were considered positive when >5 FANCD2 or γH2AX foci formed. Means and standard deviations of results from at least three independent experiments are shown. FIG. 7B depicts the DNA content histograms upon treatment with colibactin 742 (4, 11 μM) or 9 (11 μM) quantification of the sub-population of the histograms.
(§5) The present study then probed the DNA damage response that was activated following exposure to colibactin 742 (4) or its linear precursor 9. In mammalian cells, DNA interstrand cross-links (ICLs) are repaired by the Fanconi anemia pathway, and activation of this pathway is observed when eukaryotic cells are infected with clb^+ bacteria. Upon detection of an ICL, the Fanconi anemia protein D2 (FANCD2) is activated by monoubiquitinylation and recruited to the ICL to coordinate repair. Following initiation of repair, a double-strand break (DSB) is generated, which in turns triggers the formation of phospho-SER139-H2AX (γH2AX) nuclear foci. […] Consequently, the instant study probed for activation of FANCD2 and γH2AX by immunofluorescence imaging in cells treated with 4 or 9. Using conditions that closely mimic the bacterial coinfection experiments, the instant study treated HeLa cells with colibactin 742 (4) (1-100 μM), the linear precursor 9 (1-100 μM), or MMC (150 nM, higher concentrations of MMC reduced cell viability) for 4 h. The cells were then washed and cultured for a further 20 h. […] Thus, the synthetic compounds 4 and 9 induce a similar activation of the eukaryotic DNA damage response as clb^+ E. coli.
(§6) Cells were seeded at a density of 3500 cells per well to achieve total well volumes of 20 μL in 384-well plates (black with an optically clear bottom, Greiner Bio One 781091) using a Thermo Combidrop liquid dispenser. Cells were grown for 24 h, followed by the addition of test compounds using an Echo acoustic liquid handler (Labcyte). For each tested drug concentration, a 20 nL aliquot of the 1000× stock was added to 20 μL of cells to provide a final DMSO concentration of 0.1%. The compounds were incubated for 4 h at concentrations ranging from 1.2 μM to 100 μM in growth medium, at 37° C., 5% CO2. Each plate contained negative vehicle control wells (0.1% DMSO) and positive control wells (0.15 μM Mitomycin C, MMC). After 4 h incubation, the cells were washed once with Dulbecco's Phosphate-buffered solution (DPBS, Life Technologies), then fresh growth medium was added. The cells were incubated for 20 h, fixed, and subjected to immunofluorescence imaging.
(§7) Cells were fixed with 4% paraformaldehyde (PFA) (Electron Microscopy Sciences) in the presence of 0.02% Triton X-100 at room temperature (RT) for 20 min and then incubated in permeabilization/blocking solution [10% FBS and 0.5% Triton X-100 in phosphate-buffered saline (PBS)] at RT for 1 h. Primary antibodies were diluted 1:500 in permeabilization/blocking solution and used to stain cells at 4° C. overnight. […] Cells were imaged using the InCell 2200 Imaging System (GE Corp.) and analyzed using InCell Analyzer software (GE Corp.) to quantify the number of γH2AX and FANCD2 foci. Cells were counted as positive for focus formation when 5 foci/nucleus were detected.

FANCD2 = assay: Immunofluorescence assay of FANCD2 foci in HeLa cells; settings: 4 h treatment, 20 h further culture; for FANCD2 foci formation: 1-100 μM
Method: as §4, §5, §6, §7

HeLa cells = assay: Cell viability assay (CellTiter-GLO) in HeLa cells; settings: 72 h, 24 nM to 100 μM
Method: as §1, §2, §3

Structure (SMILES)	IC50 [1] [µM]	number of positive cells for γH2AX foci (γH2AX)	number of positive cells for γH2AX foci (with respect to DMSO) (γH2AX; 33 μM)	number of positive cells for FANCD2 foci (with respect to DMSO) (FANCD2; 33 μM)	number of positive cells for FANCD2 foci (FANCD2; 11 μM, positive when >5 foci)	cell death and decrease in positive cells at higher concentrations (FANCD2; higher concentrations (>33 μM))	cytotoxicity (HeLa cells)	γH2AX foci formation (γH2AX)	FANCD2 foci formation (FANCD2)
CCOC(=O)c1csc(CNC(=O)CC2=C(C3=N[C@@H](C)CC3)C(=O)NC23CC3)n1 [compound 23, reference compound]	8.4 ± 2.4	induced significant γH2AX foci formation	three-fold increase	three-fold increase					
C[C@H]1CCC(CC(=O)NC2(C(=O)CC(=O)NCC(=O)c3csc(CCc4csc(CNC(=O)CC(=O)C5(NC(=O)CC6=N[C@@H](C)CC6)CC5)n4)n3)CC2)=N1 [compound 9]	7.2 ± 1.7	four-fold increase			four-fold increase	induced cell death			
C[C@H]1CCC(C2=C(CC(=O)NCC(=O)c3csc(CCc4csc(CNC(=O)CC5=C(C6=N[C@@H](C)CC6)C(=O)NC5(C)C)n4)n3)C(C)(C)NC2=O)=N1 [compound 22]							showed no toxicity	did not induce	did not induce
CCOC(=O)c1nc(C2(O)CNC(=O)C2C2=C(C3=N[C@@H](C)CC3)C(=O)NC23CC3)cs1 (some centres unmarked) [compound 24]							showed no toxicity	did not induce	did not induce
